Data as given in US20200289598A1, “SOYBEAN SEED EXTRACT, METHOD FOR PRODUCING THE SAME AND USES THEREOF” (CHARSIRE BIOTECHNOLOGY CORP., priority 2016, published 2020).
Where “and” joins values, the source holds several entries; their conditions need not be identical. Equal values may be shown once. Read-outs that look alike come from different tables or passages of the source.

What was measured:
[1] = system: wounds of STZ-induced diabetic rats; assay: Wound closure test in STZ-induced diabetic rats; assay type: in vivo, rat; conditions: mean ± SEM
Excerpt: Approximately 8 weeks old, with body weight rages of 250 g to 300 g SD male rats were obtained from National Laboratory Animal Center, Taiwan. After 7 days of quarantine, the rats were moved until the body weight over 350 g. The rats were identified by ear notch of the animals. Each cage tag was labeled with the cage number, study number, sex and group name. The rats were housed 2 per cage in polycarbonate cage in the AAALAC accredited animal facility. […] Laboratory Rodent Diet 5001 (PMI® Nutrition International, Inc., MO, USA) were supplied ad libitum throughout the study period. Tap water was supplied ad libitum via bottles attached to the cages. Samples (test articles) were prepared according to Table 4. [table] CGS-21680: Specific adenosine A2A subtype receptor agonist, prepared by adding 1.67 mg of CGS-21680 in 248.4 g of cream base. Diabetic rats: The rats with body weight over 300 g were administrated with one dose of Streptozotocin (STZ, 65 mg/kg) by intravenous injection. The STZ-induced rats with high blood sugar (over 300 mg/dL) for 2 months were selected to conduct the wound closure test. Trauma surgeries for diabetic rats: The diabetic rats with weight lower than 300 g were eliminated and the rest were randomized into 6 groups. The rats were then anesthetized with pentobarbital and hairs on surgical area (dorsal area) were removed. […] Medication and wound closure measurement: The animals were weighed and the area of wounds was measured every other day for evaluation of wound closure. Medications were applied to each wound twice a day and the wounds were covered with cheesecloth. The hoods were worn on the necks of the rats to prevent the wounds from receiving animal scratches. […] When taking pictures, a standard ruler was placed beside the wounds. Before analyzing the wounds with Image pro (Media cybernetics), length was standardized with the standard ruler in the picture to avoid the errors caused by different picturing distances. Data analysis and statistics: Three wound areas on the rats' backs were analyzed by Image pro. The original wound areas were the areas of day zero. The original wound areas minus the wound areas at different time points and then divided by the original wound areas to get the wound closure percentages. The mean of three wound closure percentages of each rat represents the wound closure of each rat. The data was shown as mean±standard error (SEM). The p-values of the testing results were calculated by t-test in statistics software (SYSTAT, Systat software inc). P<0.05 means there is a significant difference, and it is marked with *. P<0.01 means there is a very significant difference, and it is marked with **. P<0.001 means there is an extremely significant difference, and it is marked with ***.

[2] = system: MDA-MB-231 (human breast cancer cells) tumor; assay: Tumor growth in MDA-MB-231 tumor-bearing nude mice; assay type: in vivo; conditions: CTX one injection a week, test article topical 0.1 g/day
Excerpt: Cell line and reagent: MDA-MB-231 (purchased from Food Industry Research and Development Institute, Taiwan); […] Animal facility: Approximately 6 to 8 week-old BALB/cAnN.Cg-Foxn1^nu/CrlNarl female mice were obtained from National Laboratory Animal Center, Taiwan. […] Water and food was supplied ad libitum throughout the study period. The mice were housed according to the standard procedure of the laboratory animal committee. Tumor-bearing mice induction: […] The weight, appetite, blood sugar and tumor size growth were observed every week to assess the appearance of the normal physiological state of nude mice to understand the efficacy of the extract composition. Grouping the tumor-bearing mice and treatment: […] The chemotherapy drug (an injection a week) was administrated with the extract composition. […] [table] Clinical assessment of tumor-bearing mice: The physiological state and tumor size of the tumor-bearing mice were assessed including weight, appetite, blood sugar and tumor size.

[3] = assay type: in vivo, nude mice
Protocol: Animal facility: Approximately 6 to 8 week-old BALB/cAnN.Cg-Foxn1^nu/CrlNarl female mice were obtained from National Laboratory Animal Center, Taiwan. The environment conditions were: temperature: 25±1° C.; humidity: 60±5%; independent air condition; controlled light cycle. Water and food was supplied ad libitum throughout the study period. The mice were housed according to the standard procedure of the laboratory animal committee.
Tumor-bearing mice induction: MDA-MB-231 cells (human breast cancer cells) were cultured until 5×10^6 cells, the cells required in injection of female nude mice were collected with trypsin, and resuspended in PBS solution for tumor induction. The tumor of nude mice was induced by subcutaneous injected with 100 μL of cell solution and released back into the cages to be a normal diet. When the tumor was about 300 mm^3, the mice were subjected to topical administration of different doses of the extract composition and grouping into CTX group and non-CTX group. The weight, appetite, blood sugar and tumor size growth were observed every week to assess the appearance of the normal physiological state of nude mice to understand the efficacy of the extract composition.
Grouping the tumor-bearing mice and treatment: When the tumor was about 300 mm^3, the mice were subjected to grouping as shown in Table 12. The chemotherapy drug (an injection a week) was administrated with the extract composition. The treating group was topically applied to the tumor area, skin around the tumor, and the whole back skin with the dosage of 0.1 g/day. After treatment for 5 weeks, the weight, appetite, blood sugar and tumor size growth of the nude mice were observed.
Clinical assessment of tumor-bearing mice: The physiological state and tumor size of the tumor-bearing mice were assessed including weight, appetite, blood sugar and tumor size. The tumor size was calculated according to: tumor volume (mm^3)=ab^2/2, to assess the tumor growth rate.

CCNC(=O)[C@H]1O[C@@H](n2cnc3c(N)nc(NCCc4ccc(CCC(=O)O)cc4)nc32)[C@H](O)[C@@H]1O [CGS-21680]
wound closure percentage ([1]; Experimental 1, day 4, topical twice a day, CGS-21680 10 μg/wound): 21.87±5.61% and 21.87 ± 5.61 *** % | wound closure percentage ([1]; Experimental 1, day 6, topical twice a day, CGS-21680 10 μg/wound): 25.45 ± 4.46 *** % | wound closure percentage ([1]; Experimental 1, day 8, topical twice a day, CGS-21680 10 μg/wound): 45.88 ± 4.28 *** % | wound closure percentage ([1]; Experimental 1, day 10, topical twice a day, CGS-21680 10 μg/wound): 93.80 ± 2.79 *** % | wound closure percentage ([1]; Experimental 1, day 12, topical twice a day, CGS-21680 10 μg/wound): 91.15 ± 2.72 ** % | wound closure percentage ([1]; Experimental 1, day 14, topical twice a day, CGS-21680 10 μg/wound): 98.74 ± 0.60 ** % | wound closure percentage ([1]; Experimental 2, day 4, topical twice a day, CGS-21680 6.7 μg/wound): 40.02 ± 5.03 ** % | wound closure percentage ([1]; Experimental 2, day 6, topical twice a day, CGS-21680 6.7 μg/wound): 63.09 ± 2.58 *** % | wound closure percentage ([1]; Experimental 2, day 8, topical twice a day, CGS-21680 6.7 μg/wound): 77.21 ± 2.44 *** % | wound closure percentage ([1]; Experimental 2, day 10, topical twice a day, CGS-21680 6.7 μg/wound): 80.93 ± 2.08 *** % | wound closure percentage ([1]; Experimental 2, day 12, topical twice a day, CGS-21680 6.7 μg/wound): 96.91 ± 1.08 *** % | wound closure percentage ([1]; Experimental 2, day 14, topical twice a day, CGS-21680 6.7 μg/wound): 99.17 ± 0.54 *** %

O=P1(N(CCCl)CCCl)NCCCO1 (centres unmarked) [CTX, cyclophosphamide]
tumor size elimination ([2]; 4/28): 0.00 mm^3 | tumor size elimination ([2]; 5/2): 99.61 mm^3 | tumor size elimination ([2]; 5/5): 78.95 mm^3 | tumor size elimination ([2]; 5/9): −19.52 mm^3 | tumor size elimination ([2]; 5/12): −45.11 mm^3 | tumor size elimination ([2]; 5/16): −157.57 mm^3 | tumor size elimination ([2]; 5/19): −176.41 mm^3 | tumor size elimination ([2]; 5/23): −264.85 mm^3 | tumor size elimination ([2]; 5/26): −293.68 mm^3 | tumor size elimination ([2]; 5/30): −391.42 mm^3 | average body weight ([3]; 4/28): 19.64 g | average blood sugar ([3]; 5/2): 113 dL | average body weight ([3]; 5/2): 20.04 g | average body weight ([3]; 5/5): 18.46 g | average food intake ([3]; 5/5~5/9): 4.89 g | average blood sugar ([3]; 5/9): 93 dL | average body weight ([3]; 5/9): 19.00 g | average food intake ([3]; 5/9~5/12): 5.61 g | average body weight ([3]; 5/12): 19.51 g | average food intake ([3]; 5/12~5/16): 5.38 g | average blood sugar ([3]; 5/16): 109 dL | average body weight ([3]; 5/16): 20.99 g | average food intake ([3]; 5/16~5/19): 5.21 g | average body weight ([3]; 5/19): 20.42 g | average food intake ([3]; 5/19~5/23): 4.70 g | average blood sugar ([3]; 5/23): 122 dL | average body weight ([3]; 5/23): 21.16 g | average food intake ([3]; 5/23~5/26): 4.76 g | average body weight ([3]; 5/26): 20.21 g | average food intake ([3]; 5/26~5/30): 5.22 g | average blood sugar ([3]; 5/30): 108 dL | average body weight ([3]; 5/30): 22.18 g
